According to patent US7001907B2, “Peptide-containing α-ketoamide cysteine and serine protease inhibitors” (Cephaon, Inc., priority 1997, dated 2006):

What follows are compounds tested against T1, Recombinant human calpain I (Homo sapiens, UniProt P07384) (assay: Inhibition of cysteine protease activity: calpain I, Succ-Leu-Tyr-MNA substrate hydrolysis). Conditions: Table 5, achiral P2 mimetic α-ketoamides.
T1 construct: made in house
T1 sequence (P07384 1-714): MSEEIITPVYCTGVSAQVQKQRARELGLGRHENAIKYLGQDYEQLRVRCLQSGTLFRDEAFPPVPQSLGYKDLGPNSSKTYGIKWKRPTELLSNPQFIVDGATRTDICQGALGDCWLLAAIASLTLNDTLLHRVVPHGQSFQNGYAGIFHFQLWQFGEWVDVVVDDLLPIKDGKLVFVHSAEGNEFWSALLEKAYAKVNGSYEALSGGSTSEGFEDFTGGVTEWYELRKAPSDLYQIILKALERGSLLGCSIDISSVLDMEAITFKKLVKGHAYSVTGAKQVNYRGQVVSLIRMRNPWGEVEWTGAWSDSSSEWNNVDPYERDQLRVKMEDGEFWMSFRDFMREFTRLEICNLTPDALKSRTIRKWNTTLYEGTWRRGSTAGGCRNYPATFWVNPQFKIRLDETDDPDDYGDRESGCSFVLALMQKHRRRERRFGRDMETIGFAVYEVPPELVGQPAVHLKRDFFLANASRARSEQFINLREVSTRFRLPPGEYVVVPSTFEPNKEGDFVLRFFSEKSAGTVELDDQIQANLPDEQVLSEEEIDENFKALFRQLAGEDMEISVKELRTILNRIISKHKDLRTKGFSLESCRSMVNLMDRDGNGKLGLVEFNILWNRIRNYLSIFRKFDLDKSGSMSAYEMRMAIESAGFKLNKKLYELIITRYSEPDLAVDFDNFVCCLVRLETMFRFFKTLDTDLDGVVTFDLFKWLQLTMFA
T1 sequence (P04632 1-268 partner): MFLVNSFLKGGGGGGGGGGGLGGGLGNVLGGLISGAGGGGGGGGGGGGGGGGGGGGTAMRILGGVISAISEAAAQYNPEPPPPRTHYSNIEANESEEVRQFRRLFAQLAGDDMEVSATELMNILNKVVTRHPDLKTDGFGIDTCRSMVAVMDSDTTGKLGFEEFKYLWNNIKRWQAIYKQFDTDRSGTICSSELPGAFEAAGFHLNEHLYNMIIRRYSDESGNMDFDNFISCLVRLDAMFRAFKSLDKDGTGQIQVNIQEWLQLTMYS
Assay type: biochemical
Experimental: To evaluate inhibitory activity, stock solutions (40 times concentrated) of each compound to be tested were prepared in 100% anhydrous DMSO and 5 μl of each inhibitor preparation were aliquoted into each of three wells of a 96-well plate. Recombinant human calpain I, prepared by the method of Meyer et al. (Biochem. J. 1996, 314: 511–519; incorporated herein by reference in its entirety), was diluted into assay buffer (i.e., 50 mM Tris, 50 mM NaCl, 1 mM EDTA, 1 mM EGTA, and 5 mM β-mercaptoethanol, pH 7.5, including 0.2 mM Succ-Leu-Tyr-MNA), and 175 μl was aliquoted into the same wells containing the independent inhibitor stocks as well as to positive control wells containing 5 μl DMSO, but no compound. To start the reaction, 20 μl of 50 mM CaCl2 in assay buffer was added to all wells of the plate, excepting three, which were used as background signal baseline controls. Substrate hydrolysis was monitored every 5 minutes for a total of 30 minutes. Substrate hydrolysis in the absence of inhibitor was linear for up to 15 minutes.
Inhibition of calpain I activity was calculated as the percent decrease in the rate of substrate hydrolysis in the presence of inhibitor relative to the rate in its absence. Comparison between the inhibited and control rates was made within the linear range for substrate hydrolysis. The IC50s of inhibitors (concentration yielding 50% inhibition) were determined from the percent decrease in rates of substrate hydrolysis in the presence of five to seven different concentrations of the test compound. The results were plotted as percent inhibition versus log inhibitor concentration, and the IC50 was calculated by fitting the data to the four-parameter logistic equation shown below using the program GraphPad Prism (GraphPad Software, Inc., San Diego, Calif.). y=d+[(a−d)/(1+(x/c)^b)]
The parameters a, b, c, and d are defined as follows: a is % inhibition in the absence of inhibitor, b is the slope, c is the IC50, and d is the % inhibition at an infinite concentration of inhibitor.
Work on `O=C(NCCNS(=O)(=O)c1ccc(-c2ccccn2)s1)C(=O)[C@H](Cc1ccccc1)NC(=O)c1cc(C(F)(F)F)cc(C(F)(F)F)c1` [Compound 126] yielded an IC50 of 600 nM.
In the case of `Cc1cccc(C)c1C(=O)N[C@@H](Cc1ccccc1)C(=O)C(=O)NCCNS(=O)(=O)c1ccc(-c2ccccn2)s1` [Compound 127], the IC50 is reported as 178 nM.
`O=C(NCCNS(=O)(=O)c1ccc(-c2cccc(CN3CCOCC3)c2)s1)C(=O)[C@H](Cc1ccccc1)NC(=O)c1c(Cl)cccc1Cl` [Compound 131] showed an IC50 of 29 nM.
Work on `N#Cc1cccc(-c2ccc(S(=O)(=O)NCCNC(=O)C(=O)[C@H](Cc3ccccc3)NC(=O)c3c(Cl)cccc3Cl)s2)c1` [Compound 133] yielded an IC50 of 11 nM.
In the case of `N#Cc1cccc(-c2ccc(S(=O)(=O)NCCNC(=O)C(=O)[C@H](Cc3ccccc3)NC(=O)c3c(F)cccc3F)s2)c1` [Compound 135], the IC50 is reported as 22 nM.
Work on `O=C(NCCNS(=O)(=O)c1ccc(-c2ccon2)s1)C(=O)[C@H](Cc1ccccc1)NC(=O)c1c(F)cccc1F` [Compound 136] yielded an IC50 of 62 nM.
`CCc1cccc(CC)c1C(=O)N[C@@H](Cc1ccccc1)C(=O)C(=O)NCCNS(=O)(=O)c1ccc(-c2ccon2)s1` [Compound 137] showed an IC50 of 145 nM.
In the case of `COc1cccc(OC)c1C(=O)N[C@@H](Cc1ccccc1)C(=O)C(=O)NCCNS(=O)(=O)c1ccc(-c2ccon2)s1` [Compound 138], the IC50 is reported as 4000 nM.
For `CC(C)c1ccccc1C(=O)N[C@@H](Cc1ccccc1)C(=O)C(=O)NCCNS(=O)(=O)c1ccc(-c2ccon2)s1` [Compound 139], the IC50 was 168 nM.
`O=C(NCCNS(=O)(=O)c1ccc(-c2ccon2)s1)C(=O)[C@H](Cc1ccccc1)NC(=O)c1c(F)cccc1Cl` [Compound 140] showed an IC50 of 58 nM.
For `CC(C)C(=O)N[C@@H](Cc1ccccc1)C(=O)C(=O)NCCNS(=O)(=O)c1ccc(-c2ccccn2)s1` [Compound 143], the IC50 was 1500 nM.
For `CC(C)CC(=O)N[C@@H](Cc1ccccc1)C(=O)C(=O)NCCNS(=O)(=O)c1ccc(-c2ccccn2)s1` [Compound 144], the IC50 was 590 nM.
`CC(C)CCC(=O)N[C@@H](Cc1ccccc1)C(=O)C(=O)NCCNS(=O)(=O)c1ccc(-c2ccccn2)s1` [Compound 145] was tested, and the IC50 was 29 nM.
`CC(CCC(=O)N[C@@H](Cc1ccccc1)C(=O)C(=O)NCCNS(=O)(=O)c1ccc(-c2ccccn2)s1)c1ccccc1` (some centres unmarked) [Compound 148] showed an IC50 of 87 nM.
With `O=C(CCCc1ccccc1)N[C@@H](Cc1ccccc1)C(=O)C(=O)NCCNS(=O)(=O)c1ccc(-c2ccccn2)s1` [Compound 149] the IC50 was 1500 nM.
In the case of `CC(C)CCC(=O)N[C@@H](Cc1ccccc1)C(=O)C(=O)NCCNS(=O)(=O)c1ccc(-c2cccc(C#N)c2)s1` [Compound 150], the IC50 is reported as 15 nM.
`N#Cc1cccc(-c2ccc(S(=O)(=O)NCCNC(=O)C(=O)[C@H](Cc3ccccc3)NC(=O)CCC3CCCC3)s2)c1` [Compound 151] showed an IC50 of 420 nM.
